Assay results: patent publication US20060204993A1, “Methods and compositions for modulating CHK2 pathways and methods for screening for same” (priority 2005, published 2006)
Residues, ends and D or L forms follow the SMILES beside them. *: point of attachment. Cbz = O=C(OCc1ccccc1)*; CH2F = FC*

Key:
[1] = test system: DLD1-Chk2 cells; experiment: Apoptosis and mitosis markers (Annexin-V, Pancaspase, phospho-Histone H3) and Z-VAD rescue in tet-induced cells; format: cell-based, human; settings: DLD1-tet-Chk2#17 cells, +tet six days
Experimental: FIG. 2A is a graph showing the DNA contents of cells as measured by flow cytometry (upper panel) and the percentages of Annexin-V-positive cells and Pancaspase-positive cells determined by flow cytometric analysis (bottom panels). FIG. 2B is a photograph of fluorescent microscopy showing DLD1-tet-Chk2# 17 cells cultured in the presence or absence of tetracycline following staining with DePsipher Dye (Trevigen) and monitoring the intensity of the monomer ([…]) and aggregates ([…]) of DePsipher. FIG. 2C is a photograph of immunoblots showing DLD1-tet-Chk2 #17 cell lysates following tetracycline treatment. Lysates were prepared and subjected to immunoblotting with the antibodies indicated on the left. FIG. 2D is a series of graphs of flow cytometric analysis showing the DNA content, caspase activity and percentages of DLD1-tet-Chk2#17 cells undergoing apoptosis following treated with Z-VAD- or mock-treated (None) and cultured in the presence (+tet) or absence (−tet) of tetracycline for six days.
To investigate the effect of Chk2 expression on cell cycle progression, the cell cycle profiles of DLD1-Chk2 clones (#17 and #22) were analyzed after Chk2 induction by addition of tetracycline. […]

[2] = test system: DLD1-Chk2 clones (#17 and #22); experiment: Cell cycle profile (DNA content by flow cytometry) after tetracycline induction of Chk2; format: cell-based, human

| SMILES | rescue of Chk2-induced cell death [1] | cell population with G2/M DNA content ([2]; uninduced 20%) | cell population with sub-G1 DNA content ([2]; uninduced ~4%) | cell population with S DNA content ([2]; uninduced ~25%) | cell population with G1 DNA content ([2]; uninduced ~52%) |
| --- | --- | --- | --- | --- | --- |
| CC(NC(=O)C(NC(=O)OCc1ccccc1)C(C)C)C(=O)NC(CC(=O)O)C(=O)CF (stereo not drawn) [Z-VAD] (Cbz-Val-Ala-Asp-CH2F; configuration not given here) | partially rescued |  |  |  |  |
| CN(C)[C@@H]1C(O)=C(C(N)=O)C(=O)[C@@]2(O)C(O)=C3C(=O)c4c(O)cccc4[C@@](C)(O)[C@H]3C[C@@H]12 [tetracycline] |  | 30-35% | ~40% | ~9% | ~25% |
